The record followed here is patent US20020035061A1, “COMPOSITIONS AND METHODS FOR TREATING INFECTIONS USING CATIONIC PEPTIDES ALONE OR IN COMBINATION WITH ANTIBIOTICS” (priority 1996, published 2002).

Data set [1] in a line: Single dose toxicity, intraperitoneal injection, formulations. The following applies: mouse, in vivo, ip, outbred ICR mice (Table 32). As to the method:
The single dose toxicity of a cationic peptide and antibiotic agent combination is examined in outbred ICR mice. Intraperitoneal injection of the combination in isotonic saline is carried out at increasing dose levels. The survival of the animals is monitored for 7 days. The number of animals surviving at each dose level is used to determine the maximum tolerated dose (MTD). In addition, the MTD can be determined after administration of the peptide and agent by different routes, at different time points, and in different formulations.

Data set [2] can be described thus: Cell death by Cytotox (Promega) lactate dehydrogenase release. The settings on record: LDH release. The data set is classed as cell-based. As to the method: In addition, APO-peptides and parent peptides are tested against a panel of cancer cell lines. Cell death is measured using the Cytotox (Promega) assay kit which measures the release of lactate dehydrogenase.
PBL, peripheral blood lymphocytes; HUVEC, human umbilical vein endothelial cells; H460,non-small lung tumor; K562, chronic myelogenous leukemia; DoHH-2, B-cell cell lymphoma; P388, lymphocytic leukemia; P388ADR, lymphocytic leukemia, multidrug resistant; MCF-7, breast carcinoma; MCF-7ADR, breast carcinoma, multidrug resistant.

The test system of data set [3] is mammalian red blood cells. The following applies: 37° C., 1 hour.
Method: Candidate cationic peptides may be further tested for their toxicity to normal mammalian cells. An exemplary assay is a red blood cell (RBC) (erythrocyte) hemolysis assay. Briefly, in this assay, red blood cells are isolated from whole blood, typically by centrifugation, and washed free of plasma components. A 5% (v/v) suspension of erythrocytes in isotonic saline is incubated with different concentrations of peptide analogue. […] After incubation for approximately 1 hour at 37° C., the cells are centrifuged, and the absorbance of the supernatant at 540 nm is determined. A relative measure of lysis is determined by comparison to absorbance after complete lysis of erythrocytes using NH4Cl or equivalent (establishing a 100% value). A peptide with <10% lysis at 100 μg/ml is suitable. Preferably, there is <5% lysis at 100 μg/ml. Such peptides that are not lytic, or are only moderately lytic, are desirable and suitable for further screening.
Cationic peptides are tested for toxicity towards eukaryotic cells by measuring the extent of lysis of mammalian red blood cells (RBC). Briefly, in this assay, red blood cells are separated from whole blood by centrifugation and washed free of plasma components. A 5% (v/v) washed red blood cell suspension is prepared in isotonic saline. An aliquot of peptide in formulation is then added and mixed in. After incubation at 37° C. for 1 hour with constant agitation, the solution is centrifuged and the supernatant measured for absorbance at 540 nm to detect released hemoglobin.
A combination of cationic peptide and antibiotic agent is tested for toxicity towards eukaryotic cells by measuring the extent of lysis of mammalian red blood cells. Briefly, red blood cells are separated from whole blood by centrifugation, washed free of plasma components, and resuspended to a 5% (v/v) suspension in isotonic saline. […] Following incubation with constant agitation at 37° C. for 1 hour, the solution is centrifuged, and the absorbance of the supernatant is measured at 540 nm, which detects released hemoglobin. […]

In brackets after ≈: the same amount, converted by molar mass. Like-named read-outs stand apart in the source and are kept apart here.

For the compound `CC[C@H](C)[C@H](NC(=O)[C@H](CC(C)C)NC(=O)[C@H](C)NC(=O)[C@@H]1CCCN1C(=O)[C@H](CC(C)C)NC(=O)CNC(=O)[C@@H](NC(=O)[C@@H](NC(=O)[C@H](CC(C)C)NC(=O)[C@@H](NC(=O)[C@H](CCCCN)NC(=O)[C@H](CCCCN)NC(=O)[C@@H](NC(=O)[C@H](C)NC(=O)[C@@H](NC(=O)[C@@H](NC(=O)[C@H](CC(C)C)NC(=O)[C@H](CCCCN)NC(=O)[C@H](CCCCN)NC(=O)[C@@H](NC(=O)[C@H](Cc1ccccc1)NC(=O)[C@H](CO)NC(=O)[C@H](CCCCN)NC(=O)[C@H](Cc1c[nH]c2ccccc12)NC(=O)[C@@H](N)CCCCN)[C@@H](C)CC)[C@@H](C)O)[C@@H](C)O)C(C)C)C(C)C)[C@@H](C)O)[C@@H](C)O)C(=O)N[C@@H](CO)C(=O)O` [MBI 29], the MTD at 7 days in data set [1] is 24 mg/kg. Further, the CC50 in data set [2] (DoHH-2 B-cell lymphoma cells, read-out: LC50 ± S.E., DoHH-2) turned out to be 2.1 ± 0.5 µg/mL (≈ 0.731 µM); in data set [2] (H460 non-small lung tumor cells, read-out: LC50 ± S.E., H460) it was 12.6 ± 10 µg/mL (≈ 4.39 µM); in data set [2] (K562, read-out: LC50 ± S.E., K562), 1 µg/mL (≈ 0.348 µM); in data set [2] (MCF-7ADR multidrug resistant breast carcinoma cells, read-out: LC50 ± S.E., MCF-7 ADR), 3.2 ± 1 µg/mL (≈ 1.11 µM); in data set [2] (MCF-7 breast carcinoma cells, read-out: LC50 ± S.E., MCF-7) it was 4 ± 2 µg/mL (≈ 1.39 µM); in data set [2] (P388, read-out: LC50 ± S.E., P388), 1.4 ± 0.5 µg/mL (≈ 0.487 µM). The CC50 is 2 ± 0.2 µg/mL (≈ 0.696 µM) in data set [2] (P388 ADR, read-out: LC50 ± S.E., P388 ADR); 12 ± 10 µg/mL (≈ 4.18 µM) in data set [2] (PBL, peripheral blood lymphocytes, read-out: LC50 ± S.E., PBL); 10 µg/mL (≈ 3.48 µM) in data set [2] (human, human umbilical vein endothelial cells (HUVEC), read-out: LC50 ± S.E., HUVEC). Further, the “% Lysis” value in data set [3] came to 1.9%.
